Measurements taken from patent US4254109A, “1H-Benz[de]isoquinoline-2(3H)-acetic acid derivatives” (Ayerst, McKenna & Harrison Inc., priority 1979, dated 1981).

Legend:
aldose reductase [1] = target: T1, aldose reductase (Bos taurus, UniProt P16116); test: in vitro aldose reductase inhibition (modified Hayman and Kinoshita procedure; enzyme from bovine lens); type: biochemical; conditions: read-out: Percent Inhibition at Different Molar Concentrations (in vitro); for inhibition at 10 µM: 10^-5 molar; for inhibition at 1 µM: 10^-6 molar; for inhibition at 0.1 µM: 10^-7 molar
T1 construct: preparation of the enzyme from bovine lens; from tissue; host or cells: bovine lens
Procedure: In the present case the procedure of Hayman and Kinoshita is modified in that the final chromatography step is omitted in the preparation of the enzyme from bovine lens.
The following results were obtained when the compounds of this invention were evaluated in the above in vitro test (the results for 1,3-dioxo-1H-benz[de]isoquinoline-2(3H)-acetic acid, see U.S. Pat. No. 3,821,383 cited hereinbefore, also is included for comparative purposes): […]

glucagon = conditions: cited from earlier work
insulin secretion = conditions: cited from earlier work
aldose reductase [2] = conditions: cited from earlier work

| Compound | inhibition at 10 µM (aldose reductase [1]) | inhibition at 1 µM (aldose reductase [1]) | inhibition at 0.1 µM (aldose reductase [1]) | secretion of excessive amounts of glucagon (glucagon) | insulin secretion (insulin secretion) | inhibitor of aldose reductase (aldose reductase [2]) |
| --- | --- | --- | --- | --- | --- | --- |
| O=C(O)CN1C(=O)c2cccc3c(Sc4ccccc4C(=O)O)ccc(c23)C1=O [Example 4, 1,3-Dioxo-6-[(2-carboxyphenyl)thio]-1H-benz[de]isoquinoline-2(3H)-acetic acid] | 91% | 61% | 17% | – | – | – |
| O=C(O)CN1C(=O)c2cccc3c(Sc4ccccc4)ccc(c23)C1=O [Example 3, 1,3-Dioxo-6-(phenylthio)-1H-benz[de]isoquinoline-2(3H)-acetic acid] | 92% | 71% | 22% | – | – | – |
| O=C(O)CN1C(=O)c2cccc3c(C(=O)c4ccccc4)ccc(c23)C1=O [Example 1, 6-Benzoyl-1,3-dioxo-1H-benz[de]isoquinoline-2(3H)-acetic acid] | 85% | 65% | 22% | – | – | – |
| O=C(O)CN1C(=O)c2cccc3c(Cl)ccc(c23)C1=O [Example 2, 6-Chloro-1,3-dioxo-1H-benz[de]isoquinoline-2(3H)-acetic acid] | 86% | 42% | 9% | – | – | – |
| CCCCCCCCCCSc1ccc2c3c(cccc13)C(=O)N(CC(=O)O)C2=O [Example 5, 1,3-Dioxo-6-(decylthio)-1H-benz[de]isoquinoline-2(3H)-acetic acid] | 60% | 33% | 26% | – | – | – |
| O=C(O)CN1C(=O)c2cccc3cccc(c23)C1=O [1,3-Dioxo-1H-benz[de]isoquinoline-2(3H)-acetic acid, reference compound] | 74% | 32% | 5% | prevents or decreases the secretion of excessive amounts of glucagon | stimulates insulin secretion | effective inhibitor of aldose reductase |
